How the values were obtained:
PI3Kalpha = PI3Kalpha (Homo sapiens, UniProt P42336); assay: Biochemical PI3Kalpha assay (neomycin SPA, lipid phosphorylation); details: human recombinant GST-PI3K
Method in brief: (§1)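 Recombinant PI3K incubated with lipid substrate and radioactive ATP for 120 min at room temperature with gentle stirring, then stopped with neomycin-coated PVT-SPA beads, ATP 60 mM and EDTA 6.2 mM in PBS. After 60 min bead binding and centrifugation, radioactive Ptdlns(3)P counted by scintillation.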

PI3Kbeta = PI3Kbeta (Homo sapiens, UniProt P42338); assay: Biochemical PI3Kbeta assay (neomycin SPA, lipid phosphorylation); details: human recombinant GST-PI3K
Method in brief: as §1

DNA-PK protein complex = DNA-PK protein complex (Homo sapiens, UniProt P78527); assay: Biochemical DNA-PK assay (FlashPlate)
Method in brief: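 Streptavidin-coated FlashPlate radiometric kinase assay, stopped with 200 mM EDTA, then wells washed with 0.9% NaCl and bound radioactivity counted. Blank (non-specific reaction) defined with a proprietary kinase inhibitor at 10 μM.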

[1] = system: PI3K-dependent phosphorylation of PKB at Serin 473 in PC3 cells; assay: Cellular PI3K assay (P-S473-PKB Luminex assay in PC3 cells); format: cell-based; details: Homo sapiens, PC-3, 0.5 h; PC3 cells, 30 min, serum-free, P-S473-PKB; read-out: IC50 (cell)
Method in brief: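 PC3 cells were exposed for 30 min under serum-free conditions to 7 concentrations of compound, then lysed. Lysates were captured overnight at 4°C on anti-total-PKB Luminex beads and detected with P-S473-PKB antibody plus PE-labelled secondary.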

mTOR = target: T1, mTOR (Homo sapiens, UniProt P42345); assay: Biochemical mTOR assay (Millipore mTOR assay kit)
T1 construct: purchased Millipore 14-770
Method: The biochemical mTOR assay was carried out by the method described in the Millipore mTOR assay kit (catalogue number 14-770).

[2] = target: recombinant PI3Kalpha (shortened form of the catalytic subunit) (Homo sapiens, UniProt P42336); assay: BIACORE PI3K binding assay (SPR); details: 25° C.
Method in brief: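 Contact time was 180 s and dissociation 240 s, in HEPES pH 7.40 buffer with 2% DMSO. Solvent-corrected, double-referenced data were fitted to a 1:1 model with mass transport.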

Sequence of recombinant PI3Kalpha (shortened form of the catalytic subunit) (P42336 151-1068 limits assumed): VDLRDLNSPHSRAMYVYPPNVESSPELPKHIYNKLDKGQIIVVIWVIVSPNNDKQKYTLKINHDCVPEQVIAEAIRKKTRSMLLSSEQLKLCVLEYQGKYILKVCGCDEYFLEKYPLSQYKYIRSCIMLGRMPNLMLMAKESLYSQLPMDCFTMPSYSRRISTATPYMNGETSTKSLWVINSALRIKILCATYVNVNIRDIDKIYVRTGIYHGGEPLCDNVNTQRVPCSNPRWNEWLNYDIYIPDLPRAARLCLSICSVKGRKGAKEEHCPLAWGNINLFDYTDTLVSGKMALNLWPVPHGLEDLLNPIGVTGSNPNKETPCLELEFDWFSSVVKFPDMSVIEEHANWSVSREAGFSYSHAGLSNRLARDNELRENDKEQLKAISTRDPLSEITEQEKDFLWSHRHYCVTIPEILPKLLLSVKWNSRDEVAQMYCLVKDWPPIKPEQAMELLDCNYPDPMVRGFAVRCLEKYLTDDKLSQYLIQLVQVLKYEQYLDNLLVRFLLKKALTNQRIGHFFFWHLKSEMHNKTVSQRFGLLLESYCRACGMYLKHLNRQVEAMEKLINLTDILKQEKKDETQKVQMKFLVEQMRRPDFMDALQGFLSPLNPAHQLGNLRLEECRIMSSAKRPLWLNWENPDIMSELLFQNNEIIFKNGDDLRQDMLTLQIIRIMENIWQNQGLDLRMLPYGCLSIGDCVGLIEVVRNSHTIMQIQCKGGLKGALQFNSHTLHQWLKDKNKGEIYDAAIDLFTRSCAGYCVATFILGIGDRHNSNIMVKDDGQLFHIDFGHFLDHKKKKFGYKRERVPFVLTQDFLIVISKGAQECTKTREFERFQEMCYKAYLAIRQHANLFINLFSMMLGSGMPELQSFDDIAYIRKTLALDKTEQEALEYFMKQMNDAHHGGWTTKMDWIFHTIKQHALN
Sequence of PI3Kbeta (P42338 whole entry): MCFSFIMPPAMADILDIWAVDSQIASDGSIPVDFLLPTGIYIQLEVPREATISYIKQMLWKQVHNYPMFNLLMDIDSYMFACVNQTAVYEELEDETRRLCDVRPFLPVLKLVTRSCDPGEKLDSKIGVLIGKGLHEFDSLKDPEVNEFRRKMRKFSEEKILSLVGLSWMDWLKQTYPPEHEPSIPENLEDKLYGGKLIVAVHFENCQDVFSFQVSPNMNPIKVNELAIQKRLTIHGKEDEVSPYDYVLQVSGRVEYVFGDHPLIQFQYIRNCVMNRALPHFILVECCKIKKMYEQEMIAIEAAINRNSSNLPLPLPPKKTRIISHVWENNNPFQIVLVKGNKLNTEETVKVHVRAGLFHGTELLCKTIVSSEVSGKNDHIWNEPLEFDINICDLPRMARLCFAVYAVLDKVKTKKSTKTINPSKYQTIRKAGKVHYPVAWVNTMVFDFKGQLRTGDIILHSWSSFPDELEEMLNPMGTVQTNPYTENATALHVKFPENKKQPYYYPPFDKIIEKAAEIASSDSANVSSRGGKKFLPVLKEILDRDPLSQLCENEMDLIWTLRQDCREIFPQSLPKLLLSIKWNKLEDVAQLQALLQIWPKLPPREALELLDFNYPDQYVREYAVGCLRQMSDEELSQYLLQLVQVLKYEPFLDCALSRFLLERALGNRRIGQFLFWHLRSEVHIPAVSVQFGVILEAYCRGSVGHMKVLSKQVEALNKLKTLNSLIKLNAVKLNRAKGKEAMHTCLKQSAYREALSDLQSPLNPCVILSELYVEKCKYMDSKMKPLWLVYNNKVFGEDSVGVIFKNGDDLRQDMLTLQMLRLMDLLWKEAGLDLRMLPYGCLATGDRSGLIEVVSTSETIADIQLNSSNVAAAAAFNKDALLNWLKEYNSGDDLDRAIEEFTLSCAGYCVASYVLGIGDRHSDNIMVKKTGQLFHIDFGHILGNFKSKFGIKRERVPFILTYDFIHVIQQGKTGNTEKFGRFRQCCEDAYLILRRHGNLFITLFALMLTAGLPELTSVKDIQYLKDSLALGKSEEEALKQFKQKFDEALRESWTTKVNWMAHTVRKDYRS
Sequence of PI3Kbeta (P27986 whole entry partner): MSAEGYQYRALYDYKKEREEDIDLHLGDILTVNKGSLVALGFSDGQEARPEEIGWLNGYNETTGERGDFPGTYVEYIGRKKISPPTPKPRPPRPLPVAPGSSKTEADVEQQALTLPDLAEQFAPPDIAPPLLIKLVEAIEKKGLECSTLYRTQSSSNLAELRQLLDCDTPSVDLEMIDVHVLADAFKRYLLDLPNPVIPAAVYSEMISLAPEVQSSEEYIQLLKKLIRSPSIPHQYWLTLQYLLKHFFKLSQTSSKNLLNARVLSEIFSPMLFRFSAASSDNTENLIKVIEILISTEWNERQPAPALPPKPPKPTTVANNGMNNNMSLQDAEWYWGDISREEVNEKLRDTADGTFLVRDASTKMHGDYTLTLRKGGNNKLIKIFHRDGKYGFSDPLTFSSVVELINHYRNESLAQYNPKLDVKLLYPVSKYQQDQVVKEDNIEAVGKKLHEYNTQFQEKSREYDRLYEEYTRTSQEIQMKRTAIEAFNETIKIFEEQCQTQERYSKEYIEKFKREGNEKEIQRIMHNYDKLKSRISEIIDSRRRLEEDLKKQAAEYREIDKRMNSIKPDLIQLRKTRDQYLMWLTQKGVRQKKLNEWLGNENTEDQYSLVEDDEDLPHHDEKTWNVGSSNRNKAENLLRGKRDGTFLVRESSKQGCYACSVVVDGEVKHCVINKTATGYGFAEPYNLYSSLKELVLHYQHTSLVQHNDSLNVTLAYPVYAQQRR
Sequence of PI3Kalpha (P42336 whole entry): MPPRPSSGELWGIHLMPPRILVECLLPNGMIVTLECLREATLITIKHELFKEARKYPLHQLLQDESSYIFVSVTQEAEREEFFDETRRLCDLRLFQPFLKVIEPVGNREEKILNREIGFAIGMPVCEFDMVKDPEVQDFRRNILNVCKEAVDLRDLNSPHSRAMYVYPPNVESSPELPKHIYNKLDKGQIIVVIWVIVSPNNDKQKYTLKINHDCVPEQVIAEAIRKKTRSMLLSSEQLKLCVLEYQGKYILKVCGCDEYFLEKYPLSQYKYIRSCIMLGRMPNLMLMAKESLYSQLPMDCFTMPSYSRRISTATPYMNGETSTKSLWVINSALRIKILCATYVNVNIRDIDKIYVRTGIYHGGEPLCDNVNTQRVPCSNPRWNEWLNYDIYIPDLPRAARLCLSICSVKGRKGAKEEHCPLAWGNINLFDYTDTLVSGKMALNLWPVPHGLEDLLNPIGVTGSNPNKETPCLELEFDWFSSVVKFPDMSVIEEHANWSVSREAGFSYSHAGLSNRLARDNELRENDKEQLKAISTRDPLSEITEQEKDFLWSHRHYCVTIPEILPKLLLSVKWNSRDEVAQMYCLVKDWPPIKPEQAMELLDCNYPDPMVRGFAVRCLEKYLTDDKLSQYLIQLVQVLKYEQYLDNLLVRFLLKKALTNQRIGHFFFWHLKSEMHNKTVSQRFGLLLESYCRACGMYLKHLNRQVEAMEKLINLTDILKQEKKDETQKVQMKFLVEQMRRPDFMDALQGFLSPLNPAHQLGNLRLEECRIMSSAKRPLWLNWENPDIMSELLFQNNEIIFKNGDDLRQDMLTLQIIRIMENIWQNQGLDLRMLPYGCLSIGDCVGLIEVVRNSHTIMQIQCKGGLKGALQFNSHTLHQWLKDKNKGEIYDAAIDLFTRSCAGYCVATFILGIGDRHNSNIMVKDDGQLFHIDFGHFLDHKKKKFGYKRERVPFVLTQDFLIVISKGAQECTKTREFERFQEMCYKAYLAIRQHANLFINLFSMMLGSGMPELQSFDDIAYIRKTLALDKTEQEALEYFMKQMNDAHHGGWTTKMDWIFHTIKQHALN
Sequence of PI3Kalpha (P27986 whole entry partner): as the sequence (P27986 whole entry partner) above
T1 sequence (P42345 1362-2549 limits assumed): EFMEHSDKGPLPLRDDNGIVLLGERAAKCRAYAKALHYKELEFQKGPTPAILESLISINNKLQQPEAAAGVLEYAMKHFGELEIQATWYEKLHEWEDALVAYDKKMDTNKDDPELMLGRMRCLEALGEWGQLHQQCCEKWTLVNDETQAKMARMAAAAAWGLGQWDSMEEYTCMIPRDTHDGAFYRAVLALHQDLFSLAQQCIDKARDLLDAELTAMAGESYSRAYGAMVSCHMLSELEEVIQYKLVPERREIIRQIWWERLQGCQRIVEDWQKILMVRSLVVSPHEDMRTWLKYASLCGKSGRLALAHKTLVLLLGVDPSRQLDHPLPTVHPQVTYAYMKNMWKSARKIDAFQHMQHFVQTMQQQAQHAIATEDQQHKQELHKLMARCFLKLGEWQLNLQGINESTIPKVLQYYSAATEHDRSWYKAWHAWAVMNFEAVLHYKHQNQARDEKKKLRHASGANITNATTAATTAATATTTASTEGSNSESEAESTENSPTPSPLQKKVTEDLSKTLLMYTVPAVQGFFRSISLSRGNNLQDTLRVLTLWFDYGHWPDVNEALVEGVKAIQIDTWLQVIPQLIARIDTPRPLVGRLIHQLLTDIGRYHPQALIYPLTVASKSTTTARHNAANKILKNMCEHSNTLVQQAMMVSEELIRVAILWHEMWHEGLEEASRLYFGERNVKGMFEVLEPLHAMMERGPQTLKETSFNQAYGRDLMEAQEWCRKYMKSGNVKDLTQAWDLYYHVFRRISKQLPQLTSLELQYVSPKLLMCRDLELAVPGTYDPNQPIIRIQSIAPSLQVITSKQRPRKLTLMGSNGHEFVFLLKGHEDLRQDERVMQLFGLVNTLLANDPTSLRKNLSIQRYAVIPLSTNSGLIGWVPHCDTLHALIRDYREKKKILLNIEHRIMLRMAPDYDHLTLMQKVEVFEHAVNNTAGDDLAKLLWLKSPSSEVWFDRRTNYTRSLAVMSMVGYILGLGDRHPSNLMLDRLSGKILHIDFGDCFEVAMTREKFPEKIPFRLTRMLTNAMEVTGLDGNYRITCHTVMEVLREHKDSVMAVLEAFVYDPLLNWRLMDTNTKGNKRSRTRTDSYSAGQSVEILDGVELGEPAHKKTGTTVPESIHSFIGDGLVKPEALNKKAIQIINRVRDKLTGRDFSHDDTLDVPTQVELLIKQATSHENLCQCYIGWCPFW

Compound	IC50 (PI3Kalpha)	IC50 (PI3Kbeta)	IC50 (DNA-PK protein complex)	IC50 [1]	IC50 (mTOR)	melting point	Kd [2]
Cn1cc(-c2cc(-c3cnc4ccccc4c3)ccn2)n(-c2ccc(C(C)(C)C#N)cc2)c1=O [Example A1, 2-Methyl-2-{4-[3-methyl-2-oxo-5-(4-quinolin-3-ylpyridin-2-yl)-2,3-dihydroimidazol-1-yl]phenyl}propionitrile]	100 to 10000 nM	100 to 10000 nM	0.1 to 100 nM	100 to 10000 nM	0.1 to 100 nM	228 °C	100 to 10000 nM
COc1ccc(-c2ccnc(-c3cn(C)c(=O)n3-c3ccc(C(C)(C)C#N)cc3)c2)cn1 [Example A9, 2-{4-[5-(6-Methoxy-[3,4′]bipyridinyl-2′-yl)-3-methyl-2-oxo-2,3-dihydroimidazol-1-yl]phenyl}-2-methylpropionitrile]	100 to 10000 nM	100 to 10000 nM	0.1 to 100 nM	100 to 10000 nM	100 to 10000 nM	187 °C	100 to 10000 nM
Cn1cc(-c2cc(-c3cnc4[nH]ccc4c3)ccn2)n(-c2ccc(C(C)(C)C#N)cc2)c1=O [Example A12, 2-Methyl-2-(4-{3-methyl-2-oxo-5-[4-(1H-pyrrolo[2,3-b]pyridin-5-yl)pyridin-2-yl]-2,3-dihydroimidazol-1-yl}phenyl)propionitrile]	0.1 to 100 nM	100 to 10000 nM	0.1 to 100 nM	0.1 to 100 nM	100 to 10000 nM	248 °C	0.1 to 100 nM
COc1ccc(-c2ccnc(-c3cn(C)c(=O)n3-c3ccc(C(C)(C)C#N)cc3)c2)cc1 [Example A13, 2-(4-{5-[4-(4-Methoxyphenyl)pyridin-2-yl]-3-methyl-2-oxo-2,3-dihydroimidazol-1-yl}phenyl)-2-methylpropionitrile]	> 10000 nM	> 10000 nM	0.1 to 100 nM	> 10000 nM	100 to 10000 nM	219 °C	100 to 10000 nM
COc1ccc(-c2ccnc(-c3c[nH]c(=O)n3-c3ccc(C(C)(C)C#N)cc3)c2)cn1 [Example A15, 2-{4-[5-(6-Methoxy-[3,4′]bipyridinyl-2′-yl)-2-oxo-2,3-dihydroimidazol-1-yl]-10 phenyl}-2-methylpropionitrile]	100 to 10000 nM	100 to 10000 nM	100 to 10000 nM	100 to 10000 nM		277 °C	100 to 10000 nM
CC(C)(CN)c1ccc(-n2c(-c3cc(-c4cnc5ccccc5c4)ccn3)c[nH]c2=O)cc1 [Example A16, 1-[4-(2-Amino-1,1-dimethylethyl)phenyl]-5-(4-quinolin-3-ylpyridin-2-yl)-1,3-dihydroimidazol-2-one]	100 to 10000 nM	100 to 10000 nM	100 to 10000 nM	> 10000 nM		244 to 247 °C	100 to 10000 nM
CC(C)(C#N)c1ccc(-n2c(-c3cc(-c4cnc5ccccc5c4)ccn3)c[nH]c2=O)cc1 [Example A17, 2-Methyl-2-{4-[2-oxo-5-(4-quinolin-3-ylpyridin-2-yl)-2,3-dihydroimidazol-1-yl]-phenyl}propionitrile]	100 to 10000 nM	100 to 10000 nM	100 to 10000 nM	100 to 10000 nM		271 °C	100 to 10000 nM
Cn1cc(-c2cc(-c3cnc4[nH]cc(C(F)(F)F)c4c3)ccn2)n(-c2ccc(C(C)(C)C#N)cc2)c1=O [Example A18, 2-Methyl-2-(4-{3-methyl-2-oxo-5-[4-(3-trifluoromethyl-1H-pyrrolo[2,3-b]pyridin-5-yl)pyridin-2-yl]-2,3-dihydroimidazol-1-yl}phenyl)propionitrile]	100 to 10000 nM	100 to 10000 nM	100 to 10000 nM	0.1 to 100 nM		159 °C	0.1 to 100 nM
Cn1cc(-c2cc(-c3cnc4[nH]ccc4c3)ccn2)n(-c2ccc(N3CCNCC3)c(C(F)(F)F)c2)c1=O [Example A25, 1-Methyl-3-(4-piperazin-1-yl-3-trifluoromethylphenyl)-4-[4-(1H-pyrrolo[2,3-b]-pyridin-5-yl)pyridin-2-yl]-1,3-dihydroimidazol-2-one]	100 to 10000 nM	0.1 to 100 nM	100 to 10000 nM	100 to 10000 nM		163 °C	0.1 to 100 nM
Cn1cc(-c2cc(-c3cnc4[nH]ccc4c3)ccn2)n(-c2ccc(C(C)(C)C(N)=O)cc2)c1=O [Example A34, 2-(4-{3-Methyl-2-oxo-5-[4-(1H-pyrrolo[2,3-b]pyridin-5-yl)pyridin-2-yl]-2,3-dihydroimidazol-1-yl}phenyl)isobutyramide]	0.1 to 100 nM	100 to 10000 nM	0.1 to 100 nM	100 to 10000 nM	100 to 10000 nM	299 °C	
Cn1cc(-c2cc(-c3cnc4[nH]ccc4c3)ccn2)n(-c2ccc(C(C)(C)CN)cc2)c1=O [Example A35, 3-[4-(2-Amino-1,1-dimethylethyl)phenyl]-1-methyl-4-[4-(1H-pyrrolo[2,3-b]-pyridin-5-yl)pyridin-2-yl]-1,3-dihydroimidazol-2-one]	100 to 10000 nM	100 to 10000 nM	0.1 to 100 nM	100 to 10000 nM	100 to 10000 nM	91 °C	
Cn1cc(-c2cc(-c3cnc(N)c(C(F)(F)F)c3)ccn2)n(-c2ccc(C(C)(C)C#N)cc2)c1=O [Example A40, 2-{4-[5-(6-Amino-5-trifluoromethyl-[3,4′]bipyridinyl-2′-yl)-3-methyl-2-oxo-2,3-dihydroimidazol-1-yl]phenyl}-2-methylpropionitrile]	0.1 to 100 nM	0.1 to 100 nM	0.1 to 100 nM	0.1 to 100 nM		195 °C	0.1 to 100 nM
CNc1ccc(-c2ccnc(-c3cn(C)c(=O)n3-c3ccc(C(C)(C)C#N)cc3)c2)cn1 [Example A42, 2-Methyl-2-{4-[3-methyl-5-(6-methylamino-[3,4′]bipyridinyl-2′-yl)-2-oxo-2,3-dihydroimidazol-1-yl]phenyl}propionitrile]	100 to 10000 nM	100 to 10000 nM	0.1 to 100 nM	100 to 10000 nM		191 °C	0.1 to 100 nM
Cn1cc(-c2cc(-c3cnc4[nH]ccc4c3)ccn2)n(-c2ccccc2)c1=O [Example A47, 1-Methyl-3-phenyl-4-[4-(1H-pyrrolo[2,3-b]pyridin-5-yl)pyridin-2-yl]-1,3-dihydroimidazol-2-one]	100 to 10000 nM	100 to 10000 nM	0.1 to 100 nM	100 to 10000 nM	100 to 10000 nM	264 °C	
Cn1cc(-c2cc(-c3ccc4[nH]ccc4c3)ccn2)n(-c2ccc(C(C)(C)C#N)cc2)c1=O [Example A53, 2-(4-{5-[4-(1H-Indol-5-yl)pyridin-2-yl]-3-methyl-2-oxo-2,3-dihydroimidazol-1-yl}-phenyl)-2-methylpropionitrile]	100 to 10000 nM	> 10000 nM	0.1 to 100 nM	100 to 10000 nM		238 °C	100 to 10000 nM
COc1cc(-n2c(-c3cc(-c4cnc5[nH]ccc5c4)ccn3)cn(C)c2=O)ccc1Cl [Example A58, 3-(4-Chloro-3-methoxyphenyl)-1-methyl-4-[4-(1H-pyrrolo[2,3-b]pyridin-5-yl)-pyridin-2-yl]-1,3-dihydroimidazol-2-one]	100 to 10000 nM	100 to 10000 nM	100 to 10000 nM	100 to 10000 nM		223 °C	100 to 10000 nM
